From patent US20230132256A1, “COMBINATION THERAPY” (ADC THERAPEUTICS SA, priority 2018, published 2023)

Test system: CT26 syngeneic model (subcutaneous CT26 tumors)
Test: In vivo efficacy study testing combination of sur301 (sADC×25) with gemcitabine in the CT26 syngeneic model
Design: species or system female BALB/c mice
Conditions: Gemcitabine 80 mg/kg i.p. q3d×4 (Days 1, 4, 7, 10), single agent, animals of n=10/group
Protocol: On the day of implant, cultured CT26 cells were harvested during log phase growth and resuspended in PBS at a concentration of 3×10^6 cells/mL. Tumors were initiated by subcutaneously implanting 3×10^5 CT26 cells (0.1 mL suspension) into the right flank of each test animal. Tumors were monitored as their volumes approached the target range of 80-120 mm^3. Tumor were measured in two dimensions using calipers, and volume was calculated using the formula:
Tumor Volume (mm^3)=w2×l/2
where w=width and l=length, in mm, of the tumor. Tumor weight may be estimated with the assumption that 1 mg is equivalent to 1 mm3 of tumor volume.
Fifteen days after tumor cell implantation, on Day 1 of the study, animals were sorted into groups (n=10/group) with individual tumor volumes of 75 to 144 mm^3, and group mean tumor volumes of 104-106 mm^3.
All doses were administered intraperitoneally (i.p.). The dosing volume was 0.2 mL per 20 grams of body weight (10 mL/kg), and was scaled to the body weight of each individual animal.
Gemcitabine was administered at 80 mg/kg q3d×4 which corresponded to Days 1, 4, 7 and 10.
The antibody component of ADC×25 specifically binds human CD25. […]
Tumors were measured using calipers twice per week, and each animal was euthanized when its tumor reached the endpoint volume of 2000 mm^3 or at the end of the study (Day 56), whichever came first.
Response Table Criteria: • Treatment may cause partial regression (PR) or complete regression (CR) of the tumor in an animal. • In a PR response, the tumor volume is 50% or less of its Day 1 volume for three consecutive measurements during the course of the study, and equal to or greater than 13.5 mm3 for one or more of these three measurements. • In a CR response, the tumor volume is less than 13.5 mm3 for three consecutive measurements during the study. • Any animal with a CR response at the end of the study was additionally classified as a tumor-free survivor (TFS). • Animals were scored only once during the study for a PR or CR event and only as CR if both PR and CR criteria were satisfied. […]

Nc1ccn([C@@H]2O[C@H](CO)[C@@H](O)C2(F)F)c(=O)n1 [Gemcitabine]
0: CR (complete regression) | PR (partial regression) | TFS (tumor-free survivor) (end of study Day 56)
